Target: T1, sproBACE1 (soluble human BACE1) (Homo sapiens, UniProt P56817)
T1 construct: sBACE1, corresponding to amino acids 1-454; made in house; host or cells: Sf9 insect cells (baculovirus), secreted into the medium
Assay: Peptide Hydrolysis Assay (HTRF, EuK-biotin labeled APPsw substrate)
Format: biochemical
Details: 7 nM sproBACE1, APPsw substrate, pH 5.0, 3 hr at 30° C., HTRF 665/620 ratio
Source text: A predicted soluble form of human BACE1 (sBACE1, corresponding to amino acids 1-454) was generated from the full length BACE1 cDNA (full length human BACE1 cDNA in pCDNA4/mycHisA construct; University of Toronto) by PCR using the advantage-GC cDNA PCR kit (Clontech, Palo Alto, Calif.). A HindIII/Pmel fragment from pCDNA4-sBACE1myc/His was blunt ended using Klenow and subcloned into the Stu I site of pFASTBACI(A) (Invitrogen). A sBACE1mycHis recombinant bacmid was generated by transposition in DH10Bac cells(GIBCO/BRL). Subsequently, the sBACE1mycHis bacmid construct was transfected into sf9 cells using CellFectin (Invitrogen, San Diego, Calif.) in order to generate recombinant baculovirus. […]
Proteins, were eluted from the Q-sepharose column with Buffer B (20 mM HEPES, pH 8.0, 500 mM NaCl). […] Peak protein fractions as determined by the Bradford Assay (Biorad, Calif.) were concentrated using a Centricon 30 concentrator (Millipore). sBACE1 purity was estimated to be ˜90% as assessed by SDS-PAGE and Commassie Blue staining. […]
IC50 determinations for inhibitors, (I), were determined by measuring the percent change of the relative fluorescence at 665 nm divided by the relative fluorescence at 620 nm, (665/620 ratio), in the presence of varying concentrations of I and a fixed concentration of enzyme and substrate. […]

T1 sequence (P56817 22-454): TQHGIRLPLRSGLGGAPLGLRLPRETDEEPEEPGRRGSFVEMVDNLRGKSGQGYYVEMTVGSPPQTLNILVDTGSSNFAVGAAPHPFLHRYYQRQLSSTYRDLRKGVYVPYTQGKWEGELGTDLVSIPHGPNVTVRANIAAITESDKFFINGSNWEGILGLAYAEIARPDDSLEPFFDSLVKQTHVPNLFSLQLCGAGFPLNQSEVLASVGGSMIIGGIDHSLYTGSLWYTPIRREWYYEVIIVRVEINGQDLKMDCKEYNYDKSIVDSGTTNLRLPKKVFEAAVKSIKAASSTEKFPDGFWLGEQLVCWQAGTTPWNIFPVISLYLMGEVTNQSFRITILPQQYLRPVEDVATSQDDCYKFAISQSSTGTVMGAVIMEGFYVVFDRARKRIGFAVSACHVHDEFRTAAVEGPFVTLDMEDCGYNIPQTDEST

IC50: 1 nM
Compound: CCCCCN1CC(C(=O)NC(Cc2cc(F)cc(F)c2)[C@H](O)[C@@H]2NCCN(Cc3ccccc3)C2=O)N(Cc2ccccc2)C1=O (stereo partly shown) [Example 5FF]
